{
  "source": "patent US10385034B2",
  "about": "“Flavonoid IL-17A inhibitors” (THE CLEVELAND CLINIC FOUNDATION, priority 2014, dated 2019)",
  "key": {"IL-17RA ECD": {"target": "T1, IL-17RA ECD (Homo sapiens, UniProt Q96F46)", "T1 construct": "using purified the extracellular domain (ECD) of human IL-17RA", "T1 sequence (Q96F46 33-320 limits assumed)": "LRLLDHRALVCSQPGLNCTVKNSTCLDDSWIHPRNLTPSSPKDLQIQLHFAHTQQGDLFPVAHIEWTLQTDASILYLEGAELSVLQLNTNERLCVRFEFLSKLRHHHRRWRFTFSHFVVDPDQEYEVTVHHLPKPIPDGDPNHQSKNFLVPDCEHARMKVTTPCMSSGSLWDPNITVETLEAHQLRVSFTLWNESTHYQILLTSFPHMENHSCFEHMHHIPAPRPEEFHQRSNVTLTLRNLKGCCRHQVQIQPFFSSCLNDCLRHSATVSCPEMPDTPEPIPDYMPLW", "assay": "Surface plasmon resonance (Biacore) binding to immobilized IL-17RA", "conditions": "SPR, IL-17RA immobilized on CM5 chip", "procedure": "Surface plasmon resonance (SPR). Binding of A18 to IL-17RA was conducted on Biacore T100 instrument. Purified IL-17RA was immobilized on CM5 sensor chip using amine coupling kit (GE healthcare). A18 of different concentrations were flown over the chip in PBSPP+ buffer (20 mM Phosphate, 2.7 mM KCl, 137 mM NaCl and 0.05% P20, pH 7.4). The chip was regenerated with 2M GnHCl. Binding KD was determined by Biaevaluation software."}, "IL-17A-IL-17RA binding": {"target": "T2, IL-17A-IL-17RA binding (Homo sapiens, UniProt Q96F46)", "T2 construct": "human IL-17RA-Fc (extracellular domain 1-322 AA fused with Fc region of human IgG1 at the C-terminus); purchased Sino Biological Inc", "T2 sequence (Q96F46 33-322)": "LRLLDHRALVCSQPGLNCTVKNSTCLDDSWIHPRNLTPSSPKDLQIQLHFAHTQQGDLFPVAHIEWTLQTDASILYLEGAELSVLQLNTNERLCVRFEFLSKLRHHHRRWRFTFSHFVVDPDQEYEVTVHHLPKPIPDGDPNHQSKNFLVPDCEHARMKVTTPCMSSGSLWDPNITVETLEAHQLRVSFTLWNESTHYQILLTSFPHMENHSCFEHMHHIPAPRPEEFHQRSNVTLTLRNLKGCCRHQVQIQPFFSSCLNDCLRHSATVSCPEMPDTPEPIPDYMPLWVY", "assay": "IL-17A-IL-17RA binding assay (ELISA)", "conditions": "serial dilutions of compound", "procedure": "IL-17A-IL-17RA binding assay. ELISA plates were coated with human IL-17A or IL-17E (2 μg/ml in PBS). Human IL-17RA-Fc or human IL-17RB-Fc (150 ng/ml) were added and incubated for 1 h, followed by incubation with human HRP-conjugated anti human IgG Fc secondary antibody for 1 h. ELISA were finally developed using tetramethylbenzidine substrate."}, "[1]": {"test_system": "IL-17F-induced gene expression", "assay": "IL-17F-induced gene expression in epithelial cells", "assay_type": "cell-based, human", "conditions": "data not shown"}, "Th17-mediated EAE": {"test_system": "Th17-mediated EAE", "assay": "Adoptive transfer of EAE by Th17", "assay_type": "in vivo, mouse", "procedure": "Adoptive transfer of EAE by Th17. To prepare MOG-specific polarized Th17 cell populations, drain lymph node cells were prepared from 10-week WT C57BL/6 female mice immunized with MOG 35-55 at day 10 postimmunization. Cells were cultured for 5 days with MOG 35-55 at a concentration of […] under Th17 cell (20 ng/ml IL-23) polarizing condition. For induction of Th17-mediated EAE, 10-week WT C57BL/6J female mice were injected i.p. with 3.0×10^7 polarized MOG 35-55-specific Th17 cells/mouse with or without A18 (30 μg per mouse) 4 h after 500 Rad sublethal irradiation. A18 (30 μg per mouse) was continuously administered i.p. to the treated mice every other day after Th17 injection. At the peak of disease, the mice were sacrificed and perfused with PBS. The spinal cords were fixed in 10% formalin for staining with H&E. The Brains were removed for isolation of infiltrating cells.\nIsolation and analysis of inflammatory cells from brain. Brains were homogenized in ice-cold tissue grinders and filtered through a […] cell strainer, and the cells were collected by centrifugation at 400 g for 5 min at 4° C. Cells were resuspended in 10 ml of 30% Percoll (Amersham Bioscience) and centrifuge onto a 70% Percoll cushion in 15 ml tubes at 800 g for 30 min. Cells at the 30%-70% interface were collected and were subjected to flow cytometry. Fluorescence-conjugated CD4, CD8, CD45, Ly6G1 antibodies and isotype controls were purchased from BD Biosciences. F4/80 was obtained from Serotech.\n(§1) Real-time PCR. Total RNA was extracted from spinal cords and cultured astrocytes with TRIzol (Invitrogen) according to the manufacturer's instructions. All gene expression results are expressed as arbitrary units relative to expression of the gene encoding beta-actin."}, "[2]": {"target": "T3, recombinant human IL-17RA ectodomain (Homo sapiens, UniProt Q96F46)", "T3 construct": "The recombinant human IL-17RA ectodomain was expressed in baculovirus-infected Sf-9 cells; made in house; host or cells: baculovirus-infected Sf-9 cells", "T3 sequence (Q96F46 33-320 limits assumed)": "as the sequence (Q96F46 33-320 limits assumed) above", "assay": "Fluorescence binding measurement (fluorescence quenching)", "conditions": "fluorescence-based method, IL-17RA in solution, 1 uM", "procedure": "Fluorescence binding measurement. The recombinant human IL-17RA ectodomain was expressed in baculovirus-infected Sf-9 cells and purified as described previously. Liu et al., Nat Commun 4, 1888 (2013). The compound A18 or A0 was obtained from NCI. The purified IL-17RA protein (final concentration at 1 uM) was mixed with various concentrations of compound A0 in the solution consisting of 20 mM Tris, pH 7.5, 150 mM NaCl, and 5% DMSO in a 96-well black flat-bottom microplate (Greiner Bio-One). The reaction mixtures were incubated at room temperature at 120 rpm for 10 min, and fluorescence intensity was measured on a 2300 EnSpire Multimode Plate Reader (PerkinElmer) with excitation (265 nm) and emission (336 nm) wavelengths for A18 or with excitation (240 nm) and emission (337 nm) wavelengths for A0. The fluorescence signal (relative fluorescence intensity) was obtained by subtracting the background fluorescence of buffer and compound A0, and plotted as a function of the concentration of compound A0. The fluorescence quenching was observed as a consequence of the protein-ligand interaction at dose-dependent concentrations of compound A0, and the binding constant of compound A0 to IL-17RA was estimated by one-site total binding fit model (GraphPad Prism)."}, "[3]": {"test_system": "IL-17A-induced epidermal hyperplasia", "assay": "Intradermal injection of IL-17A (skin epidermal hyperplasia)", "assay_type": "in vivo, mouse", "procedure": "Intradermal injection of IL-17A. The ears of 8-week WT C57BL/6 female mice were injected intradermally with 20 μl PBS, either alone or containing 500 ng recombinant mouse IL-17A with or without A18 (30 μg per mouse). After 7 days after injection, the mice ears were fixed in 10% formalin in PBS and stained with hematoxylin and eosin (H&E). Epidermal thickness was quantified by Image J.\nas §1"}, "[4]": {"test_system": "IL-17A-induced intraperineal neutrophilia", "assay": "Peritoneal administration of IL-17A (neutrophilia)", "assay_type": "in vivo", "conditions": "BALB/c mice, A18 30 μg per mouse i.p. co-injected with IL-17A 1 μg, 6 h", "procedure": "Peritoneal administration of IL-17A. Eight-week WT BALB/cJ female mice were subjected to intraperitoneal injection (i.p.) of PBS, 1 μg of IL-17A with or without A18 (30 μg per mouse). The peritoneal cavity was lavaged with 5 ml ice-cold PBS at 6 h post treatment. Peritoneal cells were counted and quantified by differential cell counting."}, "[5]": {"conditions": "A18 30 μg per mouse i.p. every other day"}},
  "note": "“Also recorded” adds a separate entry of the source.",
  "data": [
    {"smiles": "Oc1cc(O)c2cc(O)c(-c3ccc(O)c(O)c3)[o+]c2c1.[Cl-]", "note": "[A18, 2-(3,4-Dihydroxyphenyl)-3,5,7-trihydroxy-1-benzopyrylium chloride]", "values": [
      {"measurement": "Kd", "setting": "IL-17RA ECD", "result": 225, "unit": "nM"},
      {"measurement": "Inhibition of IL-17A-IL-17RA binding", "setting": "IL-17A-IL-17RA binding", "result": "excellent inhibition efficacy; also recorded: great inhibition efficacy"},
      {"measurement": "IL-17F-induced gene expression", "setting": "[1]", "result": "able to block"},
      {"measurement": "EAE disease severity", "setting": "Th17-mediated EAE; [5]", "result": "attenuated"},
      {"measurement": "Expression of IL-17-responsive inflammatory genes (CXCL1, IL6, GMCSF, Ccl20) in spinal cords", "setting": "Th17-mediated EAE; [5]", "result": "greatly reduced"},
      {"measurement": "Onset of EAE", "setting": "Th17-mediated EAE; [5]", "result": "substantially delayed"},
      {"measurement": "Infiltrated cells in spinal cords", "setting": "Th17-mediated EAE; H&E staining", "result": "less infiltrated cells"},
      {"measurement": "Infiltration of CD4+, CD8+ T cells and F4/80+ macrophages", "setting": "Th17-mediated EAE; brain, flow cytometry", "result": "did not affect"},
      {"measurement": "Recruitment of Ly6G+ neutrophils", "setting": "Th17-mediated EAE; brain, flow cytometry", "result": "substantially reduced"},
      {"measurement": "Kd", "setting": "[2]", "result": "~5000", "unit": "nM"},
      {"measurement": "IL-17A-dependent epidermal hyperplasia", "setting": "[3]; C57Bl/6 ears, IL-17A 500 ng with A18 30 μg per mouse intradermal, 6 consecutive days", "result": "greatly reduced"},
      {"measurement": "Levels of C-myc, Pled and Steap4 in IL-17A-treated ears", "setting": "[3]; RT-PCR", "result": "attenuated"},
      {"measurement": "IL-17A-induced intraperineal neutrophilia", "setting": "[4]", "result": "greatly attenuated"}
    ]}
  ]
}
